Laboratory results published in US5552405A, “Substituted pyrrolidine derivatives as HIV protease inhibitors” (Bio-Mega/Boehringer Ingelheim Research, Inc., priority 1995, dated 1996).

Legend:
HIV protease = target: T1, HIV protease (Human immunodeficiency virus type 1 group M subtype B, UniProt P04585); test: Recombinant HIV Protease HPLC Assay; type: biochemical; conditions: recombinant HIV protease expressed in E. coli; substrate VSFNFPQITL-NH2; pH 5.5; 37°, 30 min; read-out: IC50, concentration of the test compound which causes a 50% inhibition of the HIV-protease
T1 construct: HIV protease was expressed in E. coli; made in house; host or cells: E. coli
Source text: The procedure is based on the capacity of the test compound to inhibit enzymatic cleavage by HIV protease of a decapeptide (the substratel having an amino acid sequence which includes a known HIV protease cleavage site of a HIV polyprotein; see H. G. Krausslich et al., Proc. Natl. Acad. Sci. U.S.A., 86, 807 (1989). Details of this assay together with the results obtained for exemplified compounds of formula 1 are described in the examples hereinafter.
Enzyme: HIV protease was expressed in E. coli {construct pBRT1 prt^+, see W. G. Farmerie et al., Science, 236, 305 (1987)}, according to the following protocol: Unless stated otherwise, all solutions are aqueous solutions.
E. coli cells containing the pBRT1 prt^+ plasmid were used to inoculate a seed culture media composed of Luria-Bertani Broth containing 100 μg/mL of ampicillin. Flasks were incubated at 37° under agitation for 17 h. Production flasks containing sterile M9 broth, supplemented with 100 μg/mL of ampicillin, were inoculated at a level of 1% (v/v) using the seed culture described above. Total volume in each production flask was 500 mL in a 2 L Erlenmeyer flask. Flasks were incubated at 37° under agitation until a cell concentration corresponding to an optical density (λ=540 μm) of 0.6 was reached (no dilution). This time span was routinely 3-4 h. Flasks were then supplemented with 5 mM isopropylthiogalactoside (IPTG, Research Organics, Cleveland, Ohio, USA) and incubation was continued until the cell concentration reached an optical density of 0.2 at 16-fold dilution. Flasks were then supplemented with 1 mM phenylmethylsulfonyl fluoride (PMSF) and rapidly chilled to 4°. The bacterial cells were recovered by centrifugation at 4°. The wet pellet was stored at -70°.
All steps below were perfomed at 4° unless otherwise indicated. Thawed cells were mixed with buffer A {50 mM tris(hydroxymethyl)aminoethane HCl (Tris-HCl, pH 7.4); 0.6 mM ethylenediaminetetraacetic acid (EDTA); 0.375M NaCl, 0.2% Nonidet P-40® (BDH Chemicals Ltd., Poole, UK); 1 mM PMSF}, at a ratio of one part cells to nine parts buffer A. Diatomaceous earth (Celite 545® John Manville, Lompoc, Calif. U.S.A.) was added at a ratio of two parts to one part of wet cell weight. The resulting slurry was homogenized at high speed (ca. 20,000 rpm) on a Waring® industrial blender for 8×15 sec. pulses. Cell debris/Celite® was collected by centrifugation and the resulting pellet was extracted with 4.5 parts of buffer A to one part wet solids using the homogenization procedure described above. Supernatants from both homogenization steps were combined and soluble protein was precipitated by the addition of solid (NH4)2 SO4 to yield a final concentration of 75% saturation. This mixture was agitated for 60 min and the precipitate was recovered by centrifugation. The resulting pellet was suspended in buffer B {50 mM Tris-HCl, pH 8; 30 mM NaCl; 1 mM DL-dithiothreitol (DTT); 1 mM EDTA; mM PMSF; 10% glycerol}, and dialyzed for 18 h against the same buffer.
An aliquot of the dialyzed extract containing 150 mg of the protein was loaded onto a Sephadex A25® anion exchange column (Pharmacia, Uppsala, Sweden) with bed dimensions of 70 cm length and 2.5 cm diameter. The sample was eluted isocratically with buffer B at a linear flow rate of 10 cm/h. Fractions containing HIV protease activity (see below for assay description) were combined, and soluble protein was precipitated by the addition of saturated aqueous (NH4)2 SO4 to yield a total (NH4)2 SO4 concentration of 85% saturation. Precipitated protein was removed by centrifugation and the resulting pellet was dissolved in buffer C {50 mM 2-(4-morpholino)ethanesulfonic acid (MES), pH 5.5; 150 mM NaCl; 1 mM DTT; 1 mM EDTA; 10% glycerol}. This preparation was dialyzed for 18 h against buffer C, and then frozen at -70°. All crude extracts were purified by chromatography in aliquots containing 150 mg of protein in the same manner as described above. […]

[1] = tested on: HIV (H9/HTLV-IIIB) in HTLV-I transformed C8166 cells; test: plaque assay, inhibition of HIV (H9/HTLV-IIIB) syncytia formation in C8166 cells; type: cell-based; conditions: Human immunodeficiency virus 1, fifty times TCID50, 37°, 72 h, read-out: EC50, concentration of the test compound which causes a 50% inhibition of syncytia formation
Source text: Typical of such procedures are those described by S. Harada and N. Yamamoto, Jpn. J. Cancer Res. (Gann), 76, 432 (1985), and S. Harada et al., Science, 229, 563 (1985). An assay based on the latter procedures is described in the examples hereinafter.
The following protocol, used for screening antiviral effects of the compounds of formula 1, is adapted from a plaque assay utilizing HTLV-I transformed cells, previously reported by Harada et al., supra. HTLV-I transformed cells are used because of the rapidity with which HIV will replicate in the cells.
1. The test compound is dissolved in dimethylsulfoxide to a concentration of 5 mg/mL. The resultant solution can be stored at 4° until use.
2. The resultant solution is diluted in RPMI 1640 (Gibco Laboratories, St. Lawrence, Mass., USA) to four times (4×) the final concentration which is to be tested. Once diluted in RPMI 1640, the solution is used in the cell culture assay within 4 h.
3. The 4×solution (50 μL) is added to triplicate wells of a 96 well flat bottomed microtiter plate. RPMI (50 μL) also is added to control wells.
4. C8166 cells (5×10^4) in […] of HEPES-buffered RPMI 1640 (pH=7.2), 10% heat inactivated fetal calf serum (FCS), […] gentamicin (complete media) are added to all wells.
5. Fifty times TCID50 of H9/HTLV-IIIB stock (stored in liquid nitrogen as cell culture supernatant in 50% FCS) in 100 μL of complete media is added to all wells. Infectious titer of virus stocks are as previously determined by end point dilution on C8166 cells. Titer of stocks are stable for 6-12 months when stored at -193°.
6. Microtiter plates are then placed on level shelves of a 37°, 5% CO2 humidified incubator for 72 h.
7. Plates are then removed and centers of syncytia are counted in each well by low power phase contrast light microscopy. […] Control wells should have between 25 and 75 centers of syncytia per well.
8. Percent inhibition of syncytia formation is calculated by the formula: [formula]
The concentration of the test compound which causes a 50% inhibition of syncytia formation, i.e. the EC50, is determined by using the technique of serial dilution of the working solution at step 3 and graphically plotting the observed percent inhibition of syncytia formation against the various concentrations of the test compound.

Row | Structure (SMILES) | IC50 (HIV protease) [µM] | EC50 [1] [µM]
1 | CC(C)CO[C@H]1C[C@@H](C(=O)NC(C)(C)C)N(C[C@@H](O)[C@H](Cc2ccccc2)NC(=O)[C@@H](NC(=O)OCc2ccccc2)C(C)C)C1 [Table I Entry 5, 1-{3(S)-{{N-(benzyloxycarbonyl)valyl}amino}-2(R)-hydroxy-4-phenylbutyl}-N-tert-butyl-4(S)-(2-methylpropyloxy)pyrrolidine-2(S)-carboxamide] | 0.745 | –
2 | CC(C)(C)NC(=O)[C@@H]1C[C@@H](Cc2ccccc2)CN1C[C@@H](O)[C@H](Cc1ccccc1)NC(=O)[C@H](CC(N)=O)NC(=O)OCc1ccccc1 [Table I Entry 8, 4(R)-Benzyl-1-{3(S)-{{N-(benzyloxycarbonyl)asparaginyl}amino}-2(R)-hydroxy-4-phenylbutyl}-N-tert-butylpyrrolidine-2(S)-carboxamide] | 0.048 | 0.7
3 | CC(C)[C@H](NC(=O)c1ccc2ccccc2n1)C(=O)N[C@@H](Cc1ccccc1)[C@H](O)CN1C[C@H](Sc2ncccn2)C[C@H]1C(=O)NC(C)(C)C [Table I Entry 10, N-tert-butyl-1-{2(R)-hydroxy-4-phenyl-3(S)-{{N-(2-quinolinylcarbonyl)valyl}amino}butyl}-4(R)-(2-pyrimidinylthio)pyrrolidine-2(S)-carboxamide] | – | 0.25
4 | CC(C)(C)NC(=O)[C@@H]1C[C@@H](OCc2ccccc2)CN1C[C@@H](O)[C@H](Cc1ccccc1)NC(=O)[C@H](CC(N)=O)NC(=O)OCc1ccccc1 [Table I Entry 3, 4(R)-Benzyloxy-1-{3(S)-{{N-(benzyloxycarbonyl)asparaginyl}amino}-2(R)-hydroxy-4-phenylbutyl}-N-tert-butylpyrrolidine-2(S)-carboxamide] | 0.039 | 0.6
5 | CC(C)CO[C@@H]1C[C@@H](C(=O)NC(C)(C)C)N(C[C@@H](O)[C@H](Cc2ccccc2)NC(=O)[C@@H](NC(=O)OCc2ccccc2)C(C)C)C1 [Table I Entry 6, 1-{3(S)-{{N-(benzyloxycarbonyl)valyl}amino}-2(R)-hydroxy-4-phenylbutyl}-N-tert-butyl-4(R)-(2-methylpropyloxy)pyrrolidine-2(S)-carboxamide] | 0.18 | 3
6 | Cc1cccc(C)c1OCC(=O)N[C@@H](Cc1ccccc1)[C@H](O)CN1C[C@H](Sc2ncccn2)C[C@H]1C(=O)NC(C)(C)C [Table I Entry 13, N-tert-butyl-1-{3(S)-{{(2,6-dimethylphenoxy)acetyl}amino}-2(R)-hydroxy-4-phenylbutyl}-4(R)-(2-pyrimidinylthio)pyrrolidine-2(S)-carboxamide] | – | 0.25
7 | CC(C)[C@H](NC(=O)OCc1ccccc1)C(=O)N[C@@H](Cc1ccccc1)[C@H](O)CN1C[C@H](OCc2ccccc2)C[C@H]1C(=O)NC(C)(C)C [Entry 2] | 0.016 | –
8 | CC(C)(C)NC(=O)[C@@H]1C[C@H](OCc2ccccc2)CN1C[C@@H](O)[C@H](Cc1ccccc1)NC(=O)[C@H](CC(N)=O)NC(=O)OCc1ccccc1 [Table I Entry 4, 4(S)-Benzyloxy-1-{3(S)-{{N-(benzyloxycarbonyl)asparaginyl}amino}-2(R)-hydroxy-4-phenylbutyl}-N-tert-butylpyrrolidine-2(S)-carboxamide] | 0.3 | –
9 | Cc1cc(O[C@@H]2C[C@@H](C(=O)NC(C)(C)C)N(C[C@@H](O)[C@H](Cc3ccccc3)NC(=O)[C@@H](NC(=O)c3ccc4ccccc4n3)C(C)C)C2)nc(C)n1 [Table I Entry 12, N-tert-butyl-1-{2(R)-hydroxy-4-phenyl-3(S)-{{N-(2-quinolinylcarbonyl)valyl}amino}butyl}-4(R)-{(2,6-dimethyl-4-pyrimidinyl)oxy}pyrrolidine-2(S)-carboxamide] | 0.0094 | 0.39
10 | CC(C)[C@H](NC(=O)c1ccc2ccccc2n1)C(=O)N[C@@H](Cc1ccccc1)[C@H](O)CN1C[C@H](SCc2cccnc2)C[C@H]1C(=O)NC(C)(C)C [Table I Entry 11, N-tert-butyl-1-{2(R)-hydroxy-4-phenyl-3(S)-{{N-(2-quinolinylcarbonyl)valyl}amino}butyl}-4(R)-{(3-pyridinylmethyl)thio}pyrrolidine-2(S)-carboxamide] | 0.012 | 0.48
11 | CC(C)[C@H](NC(=O)OCc1ccccc1)C(=O)N[C@@H](Cc1ccccc1)[C@H](O)CN1C[C@H](OCc2ccccc2)C[C@H]1C(=O)NC1CC1 [Table I Entry 7, 4(R)-Benzyloxy-1-{3(S)-{{N-(benzyloxycarbonyl)valyl}amino}-2(R)-hydroxy-4-phenylbutyl}-N-cyclopropylpyrrolidine-2(S)-carboxamide] | 0.1 | 0.9
12 | Cc1cccc(C)c1OCC(=O)N[C@@H](Cc1ccccc1)[C@H](O)CN1C[C@H](SCc2cccnc2)C[C@H]1C(=O)NC(C)(C)C [Entry 14] | 0.043 | –
13 | Cc1cccc(C)c1OCC(=O)N[C@@H](Cc1ccccc1)[C@H](O)CN1C[C@H](Sc2ncccn2)C[C@H]1C(=O)NC(C)(C)C [Entry 13] | 0.0046 | –
14 | CC(C)[C@H](NC(=O)c1ccc2ccccc2n1)C(=O)N[C@@H](Cc1ccccc1)[C@H](O)CN1C[C@H](Sc2ncccn2)C[C@H]1C(=O)NC(C)(C)C [Entry 10] | 0.0047 | –
15 | CC(C)(C)NC(=O)[C@@H]1C[C@H](Cc2ccccc2)CN1C[C@@H](O)[C@H](Cc1ccccc1)NC(=O)[C@H](CC(N)=O)NC(=O)OCc1ccccc1 [Table I Entry 9, 4(S)-Benzyl-1-{3(S)-{{N-(benzyloxycarbonyl)asparaginyl}amino}-2(R)-hydroxy-4-phenylbutyl}-N-tert-butylpyrrolidine-2(S)-carboxamide] | 0.78 | 4
